Assay results taken from US20220169603A1, “NOVEL SALTS, CRYSTALLINE FORMS AND PREMIX OF HYPOLIPIDEMIC AGENT” (Cadila Healthcare Ltd., priority 2019, published 2022).

Key:
[1] = tested on: serum triglyceride levels; assay: Comparative efficacy study (triglyceride lowering effects) in Swiss albino mice; assay type: in vivo; conditions: for % Change Day 6 vs Day 0 (serum triglycerides) / % Change Vs control (serum triglycerides) / Serum triglycerides Day 6: 1 mg/kg free acid equivalent, oral, once daily for six days; for % Change Vs control (serum triglycerides): vs vehicle control; for reduction in serum triglyceride levels as compared to vehicle control group: p.o., six days; for Serum triglycerides Day 0: Day 0, before treatment, male Swiss albino mice, 6 per group; for Serum triglycerides Day 6: Day 6, one hr after dose
Method: The in-vivo efficacy of test compound was evaluated in Swiss albino mice. Anti-dyslipidemic drugs have been reported to lower circulating levels of triglyceride in Swiss albino mice through their effect on genes involved in the peroxisomal fatty acid beta oxidation via PPAR alpha agonism. Therefore, this species is preferred for evaluation of their efficacy in lowering circulating triglyceride (TG) levels.
In this experiment, ten to eleven week old male Swiss albino mice were issued and kept for acclimatization. Near the end of the acclimatization period, animals judged to be suitable for testing were bled under light anesthesia and serum samples were analyzed for serum triglyceride levels.
Test compounds were formulated at specified doses in vehicle (MiliQ Water). The animals were dosed orally, once daily in the morning during six days, starting from next day of grouping with vehicle or test compound. The animals were weighed prior to dosing, and based on these weights; the volume of administration was calculated. The volume of formulation administered to each mouse was 10 ml/kg body weight.
On day 6, one-hr after the dose administration, blood (0.25 ml) was collected from retro-orbital sinus of the anaesthetized animals. Serum was separated by centrifugation. Serum was analyzed for triglyceride levels. Analysis for serum triglyceride levels was performed using Spectrophotometer and commercially available kit. Calculations for determination of % change and % reduction in serum TG levels (Table 3) were performed using MS Excels sheet.

[2] = Stability of selected compounds measured by HPLC purity over 6 months; assay type: physicochemical
Method: • Column: YMC-pack ODS-AM (type L1) or equivalent; 250×4.6 mm, 5 μm • Wave length: 294 nm • Column temp.: 30° C. • Mobile phase: [Ammonium acetate buffer: Acetonitrile]/[55:45] • Flow rate: 1 ml/min • Injection vol.: 5 μl • Retention time: About 10 mints. • Run time: 60 mints.

[3] = Stability study of Saroglitazar free acid (purity and % of impurity on storage); assay type: physicochemical
Source text: Further the Saroglitazar free acid as disclosed in WO03009841 was always obtained in liquid form.

| Compound | % Change Day 6 vs Day 0 (serum triglycerides) [1] | % Change Vs control (serum triglycerides) [1] | reduction in serum triglyceride levels as compared to vehicle control group ([1]; 1 mg/kg) | Serum triglycerides Day 0 [1] | Serum triglycerides Day 6 [1] | HPLC (% purity) At 0 month [2] | HPLC (% purity) After 6 months [2] | Serum triglycerides Day 6 ([1]; 1 mg/kg) | other results |
| --- | --- | --- | --- | --- | --- | --- | --- | --- | --- |
| CCO[C@@H](Cc1ccc(OCCn2c(C)ccc2-c2ccc(SC)cc2)cc1)C(=O)[O-].[Na+] [Example 6, (S)-2-ethoxy-3-(4-(2-(2-methyl-5-(4-(methylthio)phenyl)-1H-pyrrol-1-yl)ethoxy)phenyl)propanoic Acid Sodium Salt] | −34.4 ± 10.5% | −62.7 ± 6.0% | 62.7% | 59.6 ± 5.4 mg/dL | 39.0 ± 7.5 mg/dL | – | – | – | – |
| CCO[C@@H](Cc1ccc(OCCn2c(C)ccc2-c2ccc(SC)cc2)cc1)C(=O)[O-].[Li+] [Example 12, (S)-2-ethoxy-3-(4-(2-(2-methyl-5-(4-(methylthio)phenyl)-1H-pyrrol-1-yl)ethoxy)phenyl)propanoic Acid Lithium Salt] | – | – | – | – | – | 96.82% | 95.50% | – | – |
| CCO[C@@H](Cc1ccc(OCCn2c(C)ccc2-c2ccc(SC)cc2)cc1)C(=O)O [Saroglitazar, (S) 2-Ethoxy-3-(4-{2-[2-methyl-5-(4-methylthiophenyl)-pyrrol-1-yl]-ethoxy}-phenyl)-propionic acid] | 8.7 ± 9.0% | −38.2 ± 5.1% | 38.2% | 61.8 ± 7.4 mg/dL | 65.9 ± 7.7 mg/dL | – | – | – | % of impurity (RT-~22.0 min) AFTER 6 DAYS ([3]; at 0-5° C.): (0.598%); PURITY AFTER 6 DAYS ([3]; at 0-5° C.): 98.44%; % of impurity (RT-~22.0 min) AFTER 17 DAYS ([3]; at 0-5° C.): (0.631%); PURITY AFTER 17 DAYS ([3]; at 0-5° C.): 98.39%; % of impurity (RT-~22.0 min), initial ([3]; at 0-5° C.): (0.573%); INITIAL PURITY ([3]; at 0-5° C.): 98.11%; % of impurity (RT-~22.0 min) AFTER 6 DAYS ([3]; at 25~30° C.): (0.770%); PURITY AFTER 6 DAYS ([3]; at 25~30° C.): 98.12%; % of impurity (RT-~22.0 min) AFTER 17 DAYS ([3]; at 25~30° C.): (0.850%); PURITY AFTER 17 DAYS ([3]; at 25~30° C.): 97.87%; % of impurity (RT-~22.0 min), initial ([3]; at 25~30° C.): (0.573%); INITIAL PURITY ([3]; at 25~30° C.): 98.11%; stability (in words) ([3]; room temperature conditions): less stable |
| (S)-2-ethoxy-3-(4-(2- (2-methyl-5-(4-(methylthio)phenyl)-1H-pyrrol-1-yl)ethoxy)phenyl)propanoic Acid Magnesium Salt [Example 31] | – | – | – | – | – | 96.95% | 95.55% | – | – |
| (S)-2-ethoxy-3-(4-(2-(2-methyl-5-(4-(methylthio)phenyl)-1H-pyrrol-1-yl)ethoxy)phenyl)propanoic Acid Aluminum Salt [Example 14] | −35.1 ± 10.9% | −63.1 ± 6.2% | 63,1% | 61.9 ± 7.4 mg/dL | 37.4 ± 3.4 mg/dL | 96.79% | 94.94% | – | – |
| (S)-2-ethoxy-3-(4-(2-(2-methyl-5-(4-(methylthio)phenyl)-1H-pyrrol-1-yl)ethoxy)phenyl)propanoic Acid Magnesium Salt [Example 28] | −47.7 ± 10.2% | −70.2 ± 5.8% | – | 64.3 ± 8.6 mg/dL | – | 93.08% | 90.72% | 30.0 ± 3.8 mg/dL | – |
| (S)-2-ethoxy-3-(4-(2-(2-methyl-5-(4-(methylthio)phenyl)-1H-pyrrol-1-yl)ethoxy)phenyl)propanoic Acid Magnesium Salt [Example 29] | −35.5 ± 7.5% | −63.3 ± 4.3% | – | 59.4 ± 5.0 mg/dL | – | 97.68% | 94.63% | 37.0 ± 3.5 mg/dL | – |
| (S)-2-ethoxy-3-(4-(2-(2-methyl-5-(4-(methylthio)phenyl)-1H-pyrrol-1-yl)ethoxy)phenyl)propanoic Acid Magnesium Salt [Example 32] | −44.5 ± 10.4% | −68.4 ± 5.9% | – | 61.9 ± 7.7 mg/dL | – | 97.10% | 95.78% | 32.6 ± 4.9 mg/dL | – |
| (S)-2-ethoxy-3-(4-(2-(2methyl-5-(4-(methylthio)phenyl)-1H-pyrrol-1-yl)ethoxy)phenyl)propanoic Acid Calcium Salt [Example 16] | −33.9 ± 14.3% | −62.4 ± 8.1% | 62.4% | 61.3 ± 6.4 mg/dL | 38.2 ± 5.6 mg/dL | 96.83% | 96.76% | – | – |
